Laboratory results as given in publication PMC11883664, “Expansion of the diversity of dispersin scaffolds” (Acta Crystallographica Section D: Structural Biology, 2025).

Columns and labels:
DispLp = target: T1, DispLp (Lactiplantibacillus paraplantarum, UniProt A0AAD0TQY4); assay: crystal structure ([…] Å) and ITC; type: binding
T1 construct: gene LP667_05900; mature polypeptide with polyhistidine tag
T1 sequence (A0AAD0TQY4 31-361): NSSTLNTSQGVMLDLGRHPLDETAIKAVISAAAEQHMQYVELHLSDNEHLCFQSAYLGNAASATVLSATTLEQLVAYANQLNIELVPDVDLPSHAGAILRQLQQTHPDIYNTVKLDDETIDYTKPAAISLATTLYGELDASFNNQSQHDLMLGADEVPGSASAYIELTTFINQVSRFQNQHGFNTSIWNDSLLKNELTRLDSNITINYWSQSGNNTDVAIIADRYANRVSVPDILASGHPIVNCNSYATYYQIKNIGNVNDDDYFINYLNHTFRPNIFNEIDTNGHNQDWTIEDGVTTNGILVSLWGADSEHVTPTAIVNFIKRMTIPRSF

DispSf = target: T2, DispSf; assay: ITC; type: binding, Mammaliicoccus fleurettii
T2 construct: mature polypeptide with polyhistidine tag

DispTs2 [1] = target: T3, DispTs2 (Terribacillus saccharophilus, UniProt A0A075LPR4); assay: ITC and crystal structure ([…] Å); type: binding
T3 construct: gene GZ22_15930; mature polypeptide with polyhistidine tag

DispTs2 [2] = target: T3, DispTs2; assay: crystal structure by soaking ([…] Å); only the NAG-thiazoline unit (NGT) modelled; type: binding
purified protein = substrate: CC(=O)N[C@H]1[C@H](Oc2ccc3c(C)cc(=O)oc3c2)O[C@H](CO)[C@@H](O)[C@@H]1O; assay: purified protein

For `CC(=O)N[C@H]1CN2CC[C@H](O)[C@@H]2[C@@H](O)[C@@H]1O` [6-Ac-Cas, 6-acetamido-6-deoxy-castanospermine], which Kd (DispLp) is on record?
Its Kd is 1120 µM.

What about the Kd (DispSf) of the same molecule?
The Kd was 15 µM.

What about the Kd (DispTs2 [1]) of the same molecule?
Its Kd is 6 µM.

For `CC(=O)N[C@H]1[C@H](OC[C@H]2O[C@@H]3SC(C)=N[C@@H]3[C@@H](O)[C@@H]2O)O[C@H](CO)[C@@H](O)[C@@H]1O` [di-NAG-thiazoline, GlcNAc-β(1,6)-GlcNAc-thiazoline], which “crystal structure by soaking (2.17 Å); only the NAG-thiazoline unit (NGT) modell” value (DispTs2 [2]) is on record?
Its value is “The electron density for the first unit of di-NAG-thiazoline (corresponding to GlcNAc-thiazoline, NGT in the PDB dictionary) was well defined”.

B1: DispTs2 (Terribacillus saccharophilus) (protein)
chain: QDQEKGITIDISRKYYSIKTLKAIVDEISANGGDYLQLHFSDNESYAIASEFLGQNSENPNSAYLTKKELLSLIAYSNDRNIMVIPDIDLPAHSKGWLNIMKEKDSGLYTDIVTDYSEDTLDYHNNAVALYTANQLLDEVLDLFYQPKFAGKQRIVLGGDEVPGSGAHQTDFIRFMNQIAKTAKASNYEPQMWNDSITPEGIQNLDRSFSILYWKQSTLSNGAQSLDVQDFEENGLSVYNYNAYSLYFLPSTRFTQEDITEQIDYMKWAYAYNKFFYISDYYKQVDTPNVKGSSLVFWGEHANDLSQERLLKQEKPLIQNFLGL
How did the Km (purified protein) turn out when B1 was run?
The Km was 2500 ± 100 µM.
